According to ChEMBL document CHEMBL1158512, “The antimicrobial activity of compounds from the leaf and stem of Vitis amurensis against two oral pathogens” (2010):
≈ marks a conversion by molar mass, not a printed value. Calls of active or inactive are those of the source. The rule behind the calls is not given here.

Assays:
Type in all cases: functional
[1] = system: Streptococcus sanguinis; experiment: Antimicrobial activity against Streptococcus sanguinis NCTC 9811 after 20 hrs by plate dilution method; conditions: NCTC 9811, 20 h
[2] = system: Streptococcus mutans; experiment: Antimicrobial activity against Streptococcus mutans KCTC 3065 assessed as total bacterial adherence inhibition
[3] = system: Streptococcus mutans; experiment: Antimicrobial activity against Streptococcus mutans KCTC 3065 at 200 ug/ml after 20 hrs by disk diffusion method; conditions: for zone of inhibition at 200 µg/mL: KCTC 3065, 20 h, read-out: IZ
[4] = system: Streptococcus mutans; experiment: Antimicrobial activity against Streptococcus mutans KCTC 3065 after 20 hrs by plate dilution method; conditions: KCTC 3065, 20 h
[5] = system: Streptococcus sanguinis; experiment: Antimicrobial activity against Streptococcus sanguinis NCTC 9811 at 100 ug/ml after 20 hrs by disk diffusion method; conditions: for zone of inhibition at 100 µg/mL: NCTC 9811, 20 h, read-out: IZ
[6] = system: Streptococcus sanguinis; experiment: Antimicrobial activity against Streptococcus sanguinis NCTC 9811 at 400 ug/ml after 20 hrs by disk diffusion method; conditions: for zone of inhibition at 400 µg/mL: NCTC 9811, 20 h, read-out: IZ
[7] = system: Streptococcus sanguinis; experiment: Antimicrobial activity against Streptococcus sanguinis NCTC 9811 at 50 ug/ml after 20 hrs by disk diffusion method; conditions: for zone of inhibition at 50 µg/mL: NCTC 9811, 20 h, read-out: IZ
[8] = system: Streptococcus sanguinis; experiment: Antimicrobial activity against Streptococcus sanguinis NCTC 9811 at 600 ug/ml after 20 hrs by disk diffusion method; conditions: for zone of inhibition at 600 µg/mL: NCTC 9811, 20 h, read-out: IZ
[9] = system: Streptococcus mutans; experiment: Antimicrobial activity against Streptococcus mutans KCTC 3065 at 100 ug/ml after 20 hrs by disk diffusion method; conditions: for zone of inhibition at 100 µg/mL: KCTC 3065, 20 h, read-out: IZ
[10] = system: Streptococcus mutans; experiment: Antimicrobial activity against Streptococcus mutans KCTC 3065 at 50 ug/ml after 20 hrs by disk diffusion method; conditions: for zone of inhibition at 50 µg/mL: KCTC 3065, 20 h, read-out: IZ
[11] = system: Streptococcus sanguinis; experiment: Antimicrobial activity against Streptococcus sanguinis NCTC 9811 assessed as total bacterial adherence inhibition
[12] = system: Streptococcus sanguinis; experiment: Antimicrobial activity against Streptococcus sanguinis NCTC 9811 at 200 ug/ml after 20 hrs by disk diffusion method; conditions: for zone of inhibition at 200 µg/mL: NCTC 9811, 20 h, read-out: IZ
[13] = system: Streptococcus mutans; experiment: Antimicrobial activity against Streptococcus mutans KCTC 3065 at 400 ug/ml after 20 hrs by disk diffusion method; conditions: for zone of inhibition at 400 µg/mL: KCTC 3065, 20 h, read-out: IZ
[14] = system: Streptococcus mutans; experiment: Antimicrobial activity against Streptococcus mutans KCTC 3065 at 600 ug/ml after 20 hrs by disk diffusion method; conditions: for zone of inhibition at 600 µg/mL: KCTC 3065, 20 h, read-out: IZ

| Structure (SMILES) | MBC [1] [µg/mL] | MIC [1] [µg/mL] | Concentration for total adherence inhibition [2] [µg/mL] | zone of inhibition at 200 µg/mL [3] [mm] | MBC [4] [µg/mL] | MIC [4] [µg/mL] | zone of inhibition at 100 µg/mL [5] [mm] | zone of inhibition at 400 µg/mL [6] [mm] | zone of inhibition at 50 µg/mL [7] [mm] | zone of inhibition at 600 µg/mL [8] [mm] | zone of inhibition at 100 µg/mL [9] [mm] | zone of inhibition at 50 µg/mL [10] [mm] | Activity [11] [µg/mL] | zone of inhibition at 200 µg/mL [12] [mm] | zone of inhibition at 400 µg/mL [13] [mm] | zone of inhibition at 600 µg/mL [14] [mm] | inhibition zone (IZ) [5] | inhibition zone (IZ) [7] | inhibition zone (IZ) [10] | also measured |
| --- | --- | --- | --- | --- | --- | --- | --- | --- | --- | --- | --- | --- | --- | --- | --- | --- | --- | --- | --- | --- |
| Oc1cc(O)cc(/C=C/c2ccc(O)c(O)c2)c1 [PICEATANNOL] | 100 (≈ 409 µM) | 50 (≈ 205 µM) | 50 | 20 | 100 (≈ 409 µM) | 50 (≈ 205 µM) | < 15 | > 20 | < 15 | > 20 | < 15 | < 15 | 50 | 20 | > 20 | > 20 |  |  |  |  |
| Oc1ccc(C2[C@H]3c4cc(O)cc(O)c4[C@@H](c4ccc(O)cc4)[C@@H]2c2cc(O)cc(O)c23)cc1 (stereo not given in full) | > 400 | > 400 | 100 | < 15 | 200 (≈ 440 µM) | 100 (≈ 220 µM) |  | < 15 |  | < 15 | < 11 |  | >200 | < 11 | < 15 | 20 | inactive | inactive | inactive |  |
| OC[C@H]1O[C@@H](Oc2cc(O)cc(/C=C/c3ccc(O)c(O)c3)c2)[C@H](O)[C@@H](O)[C@@H]1O |  |  |  |  |  |  |  |  |  |  |  |  |  |  |  |  | inactive | inactive | inactive | inhibition zone (IZ) [3]: inactive; inhibition zone (IZ) [6]: inactive; inhibition zone (IZ) [8]: inactive; inhibition zone (IZ) [9]: inactive; inhibition zone (IZ) [12]: inactive; inhibition zone (IZ) [13]: inactive; inhibition zone (IZ) [14]: inactive |
| CC[C@H]1OC(=O)[C@H](C)[C@@H](O[C@H]2C[C@@](C)(OC)[C@@H](O)[C@H](C)O2)[C@H](C)[C@@H](O[C@@H]2O[C@H](C)C[C@H](N(C)C)[C@H]2O)[C@](C)(O)C[C@@H](C)C(=O)[C@H](C)[C@@H](O)[C@]1(C)O [ERYTHROMYCIN] | 50 (≈ 68.1 µM) | 12.5 (≈ 17 µM) | 0.78 |  | < 1.5 |  |  |  |  |  |  |  | 25 |  |  |  |  |  |  |  |
| Oc1ccc(/C=C/c2cc(O)cc(O)c2)cc1 [RESVERATROL] | 100 (≈ 438 µM) | 25 (≈ 110 µM) | 25 | 20 | 50 (≈ 219 µM) | 50 (≈ 219 µM) | < 11 | < 15 | < 11 | 20 | < 15 | < 11 | 100 | < 15 | 20 | > 20 |  |  |  |  |
| OC[C@H]1OC(Oc2cc(O)cc(/C=C/c3ccc(O)cc3)c2)[C@H](O)[C@@H](O)[C@@H]1O (stereo not given in full) |  |  |  |  |  |  |  |  |  |  |  |  |  |  |  |  | inactive | inactive | inactive | inhibition zone (IZ) [3]: inactive; inhibition zone (IZ) [6]: inactive; inhibition zone (IZ) [8]: inactive; inhibition zone (IZ) [9]: inactive; inhibition zone (IZ) [12]: inactive; inhibition zone (IZ) [13]: inactive; inhibition zone (IZ) [14]: inactive |
| Oc1ccc(/C=C/c2cc(O)cc3c2[C@H](c2cc(O)cc(O)c2)[C@@H](c2ccc(O)cc2)O3)cc1 | 50 (≈ 110 µM) | 12.5 (≈ 27.5 µM) | 25 | 20 | 50 (≈ 110 µM) | 25 (≈ 55 µM) | 20 | 20 | < 15 | 20 | < 15 | < 15 | 50 | 20 | > 20 | > 20 |  |  |  |  |
| Oc1ccc([C@H]2c3c(O)cc(O)cc3[C@H]3c4c(cc(O)c5c4[C@H]2[C@@H](c2ccc(O)cc2)[C@@H]5c2cc(O)cc(O)c2)O[C@@H]3c2ccc(O)cc2)cc1 [AMURESIN G] | 100 (≈ 147 µM) | 12.5 (≈ 18.4 µM) | 25 | < 11 | 50 (≈ 73.5 µM) | 50 (≈ 73.5 µM) | < 15 | < 15 | < 11 | < 15 | < 11 |  | 50 | < 15 | < 15 | < 15 |  |  | inactive |  |
